Measurements: patent US20180148418A1, “AMIDO-SUBSTITUTED CYCLOHEXANE DERIVATIVES” (Bayer Pharma Aktiengesellschaft, priority 2015, published 2018)
pIC50: −log10 of the molar value.

Legend:
[1] = target: T1, TNKS1 (Homo sapiens, UniProt O95271); test: TNKS1 Assay B (auto-parsylation, [3H]-NAD+ SPA); assay type: biochemical; settings: 6 nM TNKS1, auto-parsylation, over night at room temperature
T1 construct: purchased BPS Bioscience, San Diego, USA 80579 (TNKS1 Histone Ribosylation Assay Kit)
T1 sequence (O95271 1-1327): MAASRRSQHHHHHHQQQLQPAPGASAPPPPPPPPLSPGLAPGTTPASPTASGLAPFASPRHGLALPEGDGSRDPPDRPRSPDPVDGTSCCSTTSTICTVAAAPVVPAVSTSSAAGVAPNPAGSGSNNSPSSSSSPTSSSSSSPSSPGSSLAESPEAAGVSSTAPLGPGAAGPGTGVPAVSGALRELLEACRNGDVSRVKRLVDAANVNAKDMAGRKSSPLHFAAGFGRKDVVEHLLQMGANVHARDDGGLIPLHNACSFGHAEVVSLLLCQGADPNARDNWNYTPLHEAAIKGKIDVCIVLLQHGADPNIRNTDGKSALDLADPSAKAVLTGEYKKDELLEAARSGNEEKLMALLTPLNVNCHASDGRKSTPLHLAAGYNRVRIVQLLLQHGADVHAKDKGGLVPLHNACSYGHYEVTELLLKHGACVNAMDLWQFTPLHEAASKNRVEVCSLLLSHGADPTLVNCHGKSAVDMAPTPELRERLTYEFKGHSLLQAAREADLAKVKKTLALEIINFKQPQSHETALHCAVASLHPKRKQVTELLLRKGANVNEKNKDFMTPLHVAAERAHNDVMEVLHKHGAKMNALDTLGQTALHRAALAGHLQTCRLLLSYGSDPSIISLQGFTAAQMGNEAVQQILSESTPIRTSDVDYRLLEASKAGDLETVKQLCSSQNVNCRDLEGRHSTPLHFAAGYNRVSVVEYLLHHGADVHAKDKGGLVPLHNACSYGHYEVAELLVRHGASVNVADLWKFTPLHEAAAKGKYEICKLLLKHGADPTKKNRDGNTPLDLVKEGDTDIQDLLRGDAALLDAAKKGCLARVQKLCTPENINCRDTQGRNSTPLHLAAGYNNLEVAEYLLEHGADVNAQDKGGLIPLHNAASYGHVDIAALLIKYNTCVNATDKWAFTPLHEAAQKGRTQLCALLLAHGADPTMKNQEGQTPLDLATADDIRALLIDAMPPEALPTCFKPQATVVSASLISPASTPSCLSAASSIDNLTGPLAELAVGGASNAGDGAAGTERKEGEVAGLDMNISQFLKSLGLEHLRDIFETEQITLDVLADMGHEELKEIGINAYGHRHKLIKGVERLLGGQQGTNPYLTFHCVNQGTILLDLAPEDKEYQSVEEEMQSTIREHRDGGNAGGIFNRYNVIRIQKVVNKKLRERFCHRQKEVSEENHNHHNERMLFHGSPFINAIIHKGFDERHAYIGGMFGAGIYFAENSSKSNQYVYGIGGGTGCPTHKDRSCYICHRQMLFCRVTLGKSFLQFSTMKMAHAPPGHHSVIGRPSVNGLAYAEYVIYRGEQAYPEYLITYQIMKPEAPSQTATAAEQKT

[2] = test system: wildtype Wnt signaling cascade; test: HEK293 TOP assay (Super TopFlash luciferase reporter, Wnt-3a stimulated); assay type: cell-based; settings: Homo sapiens, HEK293, 16 h, HEK293 TOP reporter cells, Wnt3a at EC50, 16 hours
How it was run: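 HEK293 cells stably carrying Super TopFlash (TOP) run in parallel with FOP cells, 10000/well plated 24 h ahead, stimulated with recombinant human Wnt-3a. Compounds tested 50 μM to 15 nM in 3.16-fold steps in CAFTY buffer pH 7.4 with 2 mM Ca^2+ and 0.01% BSA; luciferase read-out.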

Row | pIC50 [1] | pIC50 [2] | Compound
1 | 6.47 | 6.85 | CCNC(=O)c1[nH]cnc1C(=O)N[C@H]1CC[C@@]2(CCN(c3ccc(F)cc3)C2=O)CC1 [Example 213, N^5-ethyl-N^4-[(trans)-2-(4-fluorophenyl)-1-oxo-2-azaspiro[4.5]dec-8-yl]-1H-imidazole-4,5-dicarboxamide]
2 | 7.03 | 6.82 | O=C(NCCO)c1nc[nH]c1C(=O)N[C@H]1CC[C@H](C(=O)Nc2ccc(F)cc2Cl)CC1 [Example 18, N^5-{trans-4-[(2-chloro-4-fluorophenyl)carbamoyl]cyclohexyl}-N^4-(2-hydroxyethyl)-1H-imidazole-4,5-dicarboxamide]
3 | 7.82 | 8.44 | O=C(N[C@H]1CC[C@@]2(CCN(c3ccccc3Cl)C2=O)CC1)c1cnc2cccnn12 [Example 271, N-[(trans)-2-(2-chlorophenyl)-1-oxo-2-azaspiro[4.5]dec-8-yl]imidazo[1,2-b]pyridazine-3-carboxamide]
4 | 6.80 | 6.46 | Cc1cc(N(C)C(=O)[C@H]2CC[C@H](NC(=O)c3cnn4cccnc34)CC2)c(Cl)cc1F [Example 176, N-{trans-4-[(2-chloro-4-fluoro-5-methylphenyl)(methyl)carbamoyl]cyclohexyl}pyrazolo[1,5-a]pyrimidine-3-carboxamide]
5 | 8.00 | 8.49 | Cc1cc(N2CC[C@]3(CC[C@@H](NC(=O)c4cnn5cccnc45)CC3)C2=O)c(Cl)cc1F [Example 267, N-[(trans)-2-(2-chloro-4-fluoro-5-methylphenyl)-1-oxo-2-azaspiro[4.5]dec-8-yl]pyrazolo[1,5-a]pyrimidine-3-carboxamide]
6 | 8.14 | 9.64 | O=C(NC1CCC2(CC1)CCN(c1cc(F)c(F)cc1Cl)C2=O)c1cnn2cccnc12 (single isomer, unassigned; isomer 1) [Example 168, N-[2-(2-chloro-4,5-difluorophenyl)-1-oxo-2-azaspiro[4.5]dec-8-yl]pyrazolo[1,5-a]pyrimidine-3-carboxamide (isomer 1)]
7 | 8.00 | 7.02 | O=C(NCCN1CCOCC1)c1nc[nH]c1C(=O)N[C@H]1CC[C@H](C(=O)Nc2ccc(F)cc2Cl)CC1 [Example 13, N^5-{trans-4-[(2-chloro-4-fluorophenyl)carbamoyl]cyclohexyl}-N^4-[2-(morpholin-4-yl)ethyl]-1H-imidazole-4,5-dicarboxamide]
8 | 8.12 | 9.01 | O=C(NC1CC1)c1nc[nH]c1C(=O)N[C@H]1CC[C@@]2(CCN(c3cc(F)c(F)cc3Cl)C2=O)CC1 [Example 199, N^5-[(trans)-2-(2-chloro-4,5-difluorophenyl)-1-oxo-2-azaspiro[4.5]dec-8-yl]-N^4-cyclopropyl-1H-imidazole-4,5-dicarboxamide]
9 | 7.85 | 7.80 | COc1ccn2ncc(C(=O)N[C@H]3CC[C@@]4(CCN(c5ccc(F)cc5Cl)C4=O)CC3)c2n1 [Example 218, N-[(trans)-2-(2-chloro-4-fluorophenyl)-1-oxo-2-azaspiro[4.5]dec-8-yl]-5-methoxypyrazolo[1,5-a]pyrimidine-3-carboxamide]
10 | 8.43 | 7.14 | CC1CCN(CCNC(=O)c2nc[nH]c2C(=O)N[C@H]2CC[C@H](C(=O)Nc3ccc(F)cc3Cl)CC2)CC1 [Example 12, N^5-{trans-4-[(2-chloro-4-fluorophenyl)carbamoyl]cyclohexyl}-N^4-[2-(4-methylpiperidin-1-yl)ethyl]-1H-imidazole-4,5-dicarboxamide]
11 | 7.92 | 8.23 | CN1CC(NC(=O)c2nc[nH]c2C(=O)N[C@H]2CC[C@@]3(CCN(c4ccc(F)cc4Cl)C3=O)CC2)C1 [Example 187, N^5-[(trans)-2-(2-chloro-4-fluorophenyl)-1-oxo-2-azaspiro[4.5]dec-8-yl]-N^4-(1-methylazetidin-3-yl)-1H-imidazole-4,5-dicarboxamide]
12 | 6.48 | 6.25 | Cc1ccccc1N(C)C(=O)[C@H]1CC[C@H](NC(=O)c2cnn3cccnc23)CC1 [Example 178, N-{trans-4-[methyl(2-methylphenyl)carbamoyl]cyclohexyl}pyrazolo[1,5-a]pyrimidine-3-carboxamide]
13 | 8.17 | 9.13 | CNC(=O)c1nc[nH]c1C(=O)N[C@H]1CC[C@@]2(CCN(c3cc(F)c(F)cc3Cl)C2=O)CC1 [Example 196, N^5-[(trans)-2-(2-chloro-4,5-difluorophenyl)-1-oxo-2-azaspiro[4.5]dec-8-yl]-N^4-methyl-1H-imidazole-4,5-dicarboxamide]
14 | 5.96 | 5.85 | CN(C)C(=O)c1nc[nH]c1C(=O)N[C@H]1CC[C@H](C(=O)Nc2ccc(F)cc2Cl)CC1 [Example 16, N^5-{trans-4-[(2-chloro-4-fluorophenyl)carbamoyl]cyclohexyl}-N^4,N^4-dimethyl-1H-imidazole-4,5-dicarboxamide]
15 | 7.08 | 7.31 | O=C(NC1CC1)c1nc[nH]c1C(=O)N[C@H]1CC[C@H](C(=O)Nc2ccc(F)cc2Cl)CC1 [Example 17, N^5-{trans-4-[(2-chloro-4-fluorophenyl)carbamoyl]cyclohexyl}-N^4-cyclopropyl-1H-imidazole-4,5-dicarboxamide]
16 | 6.48 | 7.37 | O=C(NCC(F)(F)F)c1nc[nH]c1C(=O)N[C@H]1CC[C@@]2(CCN(c3cccc(Cl)c3)C2=O)CC1 [Example 281, N^5-[(trans)-2-(3-chlorophenyl)-1-oxo-2-azaspiro[4.5]dec-8-yl]-N^4-(2,2,2-trifluoroethyl)-1H-imidazole-4,5-dicarboxamide]
17 | 8.10 | 8.77 | CC(C)NC(=O)c1nc[nH]c1C(=O)N[C@H]1CC[C@@]2(CCN(c3cc(F)c(F)cc3Cl)C2=O)CC1 [Example 198, N^5-[(trans)-2-(2-chloro-4,5-difluorophenyl)-1-oxo-2-azaspiro[4.5]dec-8-yl]-N^4-(propan-2-yl)-1H-imidazole-4,5-dicarboxamide]
18 | 6.51 | 7.39 | COCCNC(=O)c1nc[nH]c1C(=O)N[C@H]1CC[C@@]2(CCN(c3cccc(Cl)c3)C2=O)CC1 [Example 282, N^5-[(trans)-2-(3-chlorophenyl)-1-oxo-2-azaspiro[4.5]dec-8-yl]-N^4-(2-methoxyethyl)-1H-imidazole-4,5-dicarboxamide]
19 | < 5.00 | 6.30 | O=C(N[C@H]1CC[C@H](C(=O)Nc2ccc(F)cc2Cl)CC1)c1cnn2ccccc12 [Example 205, N-{trans-4-[(2-chloro-4-fluorophenyl)carbamoyl]cyclohexyl}pyrazolo[1,5-a]pyridine-3-carboxamide]
20 | 6.92 | 7.05 | COCCNC(=O)c1nc[nH]c1C(=O)N[C@H]1CC[C@H](C(=O)Nc2ccc(F)cc2Cl)CC1 [Example 19, N^5-{trans-4-[(2-chloro-4-fluorophenyl)carbamoyl]cyclohexyl}-N^4-(2-methoxyethyl)-1H-imidazole-4,5-dicarboxamide]
21 | 8.16 | 9.77 | O=C(N[C@H]1CC[C@@]2(CCN(c3cc(F)c(F)cc3Cl)C2=O)CC1)c1[nH]cnc1C(=O)N1CC(F)C1 [Example 200, N-[(trans)-2-(2-chloro-4,5-difluorophenyl)-1-oxo-2-azaspiro[4.5]dec-8-yl]-4-[(3-fluoroazetidin-1-yl)carbonyl]-1H-imidazole-5-carboxamide]
22 | 7.89 | 7.15 | O=C(N[C@H]1CC[C@H](C(=O)N(CC2CC2)c2ccc(F)cc2Cl)CC1)c1cnn2cccnc12 [Example 177, N-{trans-4-[(2-chloro-4-fluorophenyl)(cyclopropylmethyl)carbamoyl]cyclohexyl}pyrazolo[1,5-a]pyrimidine-3-carboxamide]
